Patent US20230416329A1, “A PEPTIDE WITH DISULFIDE BONDS AND INHIBITORY ACTIVITY AGAINST SERINE PROTEASES, DERIVED HYBRID PEPTIDES THEREOF, AND USES THEREOF” (INSTITUTE OF MATERIA MEDICA , CHINESE ACADEMY OF MEDICAL …, priority 2020, published 2023)
“And” between values parts separate entries of the source, which are not always exact repeats. Identical values can stand only once.

System: mouse ear swelling
Assay: Croton oil mouse ear swelling, IL-17A inhibitory peptide administered via duodenum
Assay type: in vivo
Settings: peptides 300 mg/kg, dexamethasone 1 mg/mL, 10 mL/kg
Protocol: Enteric coating technology can be used to achieve oral administration of targeted small intestine drugs. Considering factors such as gastric emptying and physical barriers in the stomach, in order to accurately detect the feasibility of direct intestinal administration of targeted IL-17A inhibitory peptide, duodenal administration is designed. Eight mice in each group are subjected to surgical exposure of the duodenum under ether anesthesia, and the drug is injected according to different grouping schemes.
The model control group (Con) is given PEG400 (50%, w/v)/physiological saline. The administration group was given different polypeptide samples (300 mg/kg), while the positive control group was given dexamethasone (1 mg/mL, 10 mL/kg), and then the muscular layer and cortex were sutured. Ear swelling model was established 6 minutes after suture. All mice in each group were coated with 10 μL croton oil on both sides of the right ear. After 4 hours of inflammation, the mice in each group were killed for cervical dislocation. After that, ear pieces were punched in the symmetrical parts of the left and right ears with a hole punch and weighed. Their mass was recorded. The swelling degree and swelling rate were calculated:
Swelling rate=((right ear mass−left ear mass)/left ear mass)*100%

C[C@@H]1C[C@H]2[C@@H]3CCC4=CC(=O)C=C[C@]4(C)[C@@]3(F)[C@@H](O)C[C@]2(C)[C@@]1(O)C(=O)CO [dexamethasone]
Swelling (%) (4 hours after croton oil): 58.11 ± 18.81 % and 65.67 ± 15.52 %
Swelling inhibitory (%) (vs model control): 39.57% and 28.84%
